In patent publication US6680323B2, “Dihydropyrimidines and uses thereof” (Synaptic Pharmaceutical Corporation, priority 1998, dated 2004):
Where a name gives a salt, the structure may show the parent alone.

How the values were obtained:
human α2a receptor = target: T1, human α2a receptor (Homo sapiens, UniProt P08913); test: Competition binding ([3H]rauwolscine) at cloned human α2a receptor; details: transfected LM(tk−) cells, [3H]rauwolscine 0.5 nM; read-out: Binding affinity hα2a
T1 construct: expressed in transfected cells
T1 sequence (P08913 1-465): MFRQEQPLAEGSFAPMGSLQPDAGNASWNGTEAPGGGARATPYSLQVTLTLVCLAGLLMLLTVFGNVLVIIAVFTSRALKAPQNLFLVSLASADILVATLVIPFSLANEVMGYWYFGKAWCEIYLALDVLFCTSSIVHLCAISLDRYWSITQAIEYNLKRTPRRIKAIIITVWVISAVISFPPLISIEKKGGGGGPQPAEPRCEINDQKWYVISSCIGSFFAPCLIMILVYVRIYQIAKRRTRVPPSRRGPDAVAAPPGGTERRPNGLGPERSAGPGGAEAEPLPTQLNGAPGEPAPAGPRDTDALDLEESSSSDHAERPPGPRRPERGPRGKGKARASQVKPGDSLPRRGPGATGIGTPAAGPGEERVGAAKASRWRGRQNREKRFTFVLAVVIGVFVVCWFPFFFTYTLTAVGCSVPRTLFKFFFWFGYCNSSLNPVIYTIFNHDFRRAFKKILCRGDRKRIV
Description: (§1) α2 Human Adrenergic Receptors
(§2) To determine the potency of α1 antagonists at the α2 receptors, LM(tk−) cell lines stably transfected with the genes encoding the α2a, α2b, and α2c receptors were used. The cell line expressing the α2a receptor is designated L-α2A, and was deposited on Nov. 6, 1992 under ATCC Accession No. CRL 11180. The cell line expressing the α2b receptor is designated L-NGC-α2B, and was deposited on Oct. 25, 1989 under ATCC Accession No. CRL10275. The cell line expressing the α2c receptor is designated L-α2C, and was deposited on Nov. 6, 1992 under ATCC Accession No. CRL-11181. All the cell lines were deposited with the American Type Culture Collection, 12301 Parklawn Drive, Rockville, Md. 20852, U.S.A. under the provisions of the Budapest Treaty for the International Recognition of the Deposit of Microorganisms for the Purposes of Patent Procedure. Cell lysates were prepared as described above (see Radioligand Binding Assays), and suspended in 25 mM glycylglycine buffer (pH 7.6 at room temperature). Equilibrium competition binding assay were performed using [3H]rauwolscine (0.5 nM), and nonspecific binding was determined by incubation with 10 μM phentolamine. The bound radioligand was separated by filtration through GF/B filters using a cell harvester.

human α2c receptor = target: T2, human α2c receptor (Homo sapiens, UniProt P18825); test: Competition binding ([3H]rauwolscine) at cloned human α2c receptor; details: transfected LM(tk−) cells, [3H]rauwolscine 0.5 nM; read-out: Binding affinity hα2c
T2 construct: expressed in transfected cells
T2 sequence (P18825 1-462): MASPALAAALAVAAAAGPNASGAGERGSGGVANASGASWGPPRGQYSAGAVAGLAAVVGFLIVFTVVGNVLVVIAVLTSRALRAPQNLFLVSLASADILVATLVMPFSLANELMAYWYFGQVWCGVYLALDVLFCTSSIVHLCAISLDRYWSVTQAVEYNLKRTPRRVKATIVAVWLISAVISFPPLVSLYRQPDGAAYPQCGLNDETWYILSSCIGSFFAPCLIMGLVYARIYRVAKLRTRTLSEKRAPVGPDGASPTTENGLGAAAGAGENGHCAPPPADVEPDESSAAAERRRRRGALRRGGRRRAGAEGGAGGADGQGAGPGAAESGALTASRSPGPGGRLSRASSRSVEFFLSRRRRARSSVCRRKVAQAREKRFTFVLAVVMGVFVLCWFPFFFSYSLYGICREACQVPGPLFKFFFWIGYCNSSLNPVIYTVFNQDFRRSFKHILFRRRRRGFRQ
Description: as §1, §2

Row | Ki (human α2a receptor) [µM] | Ki (human α2c receptor) [µM] | SMILES
1 | 4.2 | 1.5 | COCC1=C(C(=O)OC)[C@H](c2ccc(F)c(F)c2)N(C(=O)NCCCN2CCC(c3cccc[n+]3[O-])CC2)C(=O)N1 [Compound 2, (+)-1,2,3,6-Tetrahydro-1-{N-[4-(2-pyridyl)piperidin-1-yl]propyl}carboxamido-5-methoxycarbonyl-4-methoxymethyl-6-(3,4-difluorophenyl)-2-oxopyrimidine-pyridine-N-oxide hydrochloride]
2 | 40 | > 50 | COCC1=C(C(=O)OC)[C@H](c2ccc(F)c(F)c2)N(C(=O)NCCCO)C(=O)N1 [Compound 1, (+)-1,2,3,6-Tetrahydro-1-(3-hydroxypropyl)carboxamido-5-methoxycarbonyl-4-methoxymethyl-6-(3,4-difluorophenyl)-2-oxo-pyrimidine]
3 | > 50 | > 50 | O=C(O)CCNC(=O)N1C(=O)NC2=C(C(=O)OC2)[C@@H]1c1ccc(F)c(F)c1 [Compound 9]
4 | 1.5 | 1.5 | O=C1OCC2=C1C(c1ccc(F)c(F)c1)N(C(=O)NCCCN1CCC(c3ccccn3)CC1)C(=O)N2 (single isomer, unassigned; (+)) [Compound 8, (+)-1-3-{[4-(3,4-Difluorophenyl)-2,5-dioxo-1,2,5,7-tetrahydro-4H-furo[3,4-d]-pyrimidine-3-carbonyl]amino}-propyl-4-(2-pyridyl)-piperidine]

Further lines, the compound ahead of its results:

Row | SMILES | Ki (human α2a receptor) [µM] | Ki (human α2c receptor) [µM]
5 | COCC1=C(C(=O)OC)[C@H](c2ccc(F)c(F)c2)N(C(=O)NCCC[n+]2ccc(-c3ccccn3)cc2)C(=O)N1 [Compound 3, 4-(2-Pyridyl)-1-{3-[5-carboxymethyl-4-methoxymethyl-2-oxo-6(S)-(3,4-difluorphenyl)-1,2,3,6-tetrahydropyrimidin-1-yl]carboxyaminopropyl}pyridinium chloride] | 5.62 | 3.39
6 | COC(=O)C1=C(CO)NC(=O)N(C(=O)NCCCN2CCC(c3ccccn3)CC2)[C@H]1c1ccc(F)c(F)c1 [Compound 7, (+)-1,2,3,6-Tetrahydro-1-{N-[4-(2-pyridyl)piperidin-1-yl]propyl}carboxamido-5-methoxycarbonyl-4-hydroxymethyl-6-(3,4-difluorophenyl)-2-oxopyrimidine] | 0.38 | 0.26
